Measured values as given in patent US20250100994A1, “CDK12/13 COVALENT INHIBITORS OR PHARMACEUTICAL COMPOSITION THEREOF, AND USES THEREOF” (The Regents of the University of Michigan, priority 2023, published 2025).

Tests used:
[1] = system: VCaP cell; assay: VCaP cell proliferation, CellTiter-Glo Luminescent Cell Viability Assay; type: cell-based; conditions: VCaP cells
Experimental: The VCaP cell proliferation activity was determined by CellTiter-Glo Luminescent Cell Viability Assay (Promega, Madison, WI). The cells were inoculated on a 96-well plate in their respective culture mediums, and incubated in an incubator with 5% CO2 at 37° C. After incubation overnight, serial dilutions of the compound were prepared, and added into the 96-well plate. A CellTiter-Glo reagent (volume equal to the volume of the cell culture medium present in each well) was added (e.g., 100 μL of the reagent was added into 100 μL of the cell culture medium in the 96-well plate). The contents were mixed on an orbital shaker for 2 min to induce the cell lysis. The cells in the 96-well plate were incubated at room temperature for 10 min, to stabilize the luminescent signal. Luminescence was recorded: the luminescent signal for each well was acquired using an Infinite M1000 Pro plate reader (Tecan, Zurich, Switzerland), and the data was analyzed using GraphPad Prism software (GraphPad Software Inc, La Jolla, CA).

[2] = target: CDK12 (Homo sapiens (Human), UniProt Q9NYV4); assay: LANCE Ultra kinase assay, CDK12; type: biochemical; conditions: 30 nM enzyme, 60 min pre-incubation, ULight-4E-BP1 150 nM; read-out: CDK12 IC50
Experimental: (§1) The inhibitory activities of the test compound on the kinases were evaluated by LANCE Ultra assay, which was used for detecting ATP-dependent phosphorylation of a ULight-4E-BP1 (Thr37/Thr46) substrate peptide (150 nM). In short, enzymatic reactions were performed in a reaction buffer (25 mM HEPES (pH 7.5), 10 mM MgCl2, 0.01% BSA, 0.01% Tween 20, and 1 mM DTT). The assay was performed in a 384-well plate (6 μL). A final concentration of an ATP substrate was […], and a final concentration of the ULight-4E-BP1 (Thr37/Thr46) substrate peptide was 150 nM. A final concentration of CDK9, CDK12, or CDK13 was 0.3, 30, or 30 nM, respectively. Pre-incubation of the compound and the enzyme was performed at room temperature for 60 min. The reaction was stopped by adding 10 mM EDTA and 0.15 nM Eu-labeled anti-phospho-eIF4E-binding protein 1 (Thr37/46) antibody in LANCE detection buffer after incubation at room temperature for 15, 60, or 90 min. Time-resolved fluorescence (excitation, 320 nm; emission donor, 615 nm; emission acceptor, 665 nm) was monitored using an EnVision spectrophotometer (PerkinElmer). Readings were computed as (acceptor count/donor count)×1000. IC50 values were derived by fitting a sigmoidal dose-response curve to a plot of assay readouts of inhibitor concentrations. All fittings were computed using program Prism 5.03 (GraphPad Software, San Diego, CA).

[3] = target: CDK13 (Homo sapiens (Human), UniProt Q14004); assay: LANCE Ultra kinase assay, CDK13; type: biochemical; conditions: 30 nM enzyme, 60 min pre-incubation, ULight-4E-BP1 150 nM; read-out: CDK13 IC50
Experimental: as §1

Sequence of CDK13 (Q14004 whole entry, looked up): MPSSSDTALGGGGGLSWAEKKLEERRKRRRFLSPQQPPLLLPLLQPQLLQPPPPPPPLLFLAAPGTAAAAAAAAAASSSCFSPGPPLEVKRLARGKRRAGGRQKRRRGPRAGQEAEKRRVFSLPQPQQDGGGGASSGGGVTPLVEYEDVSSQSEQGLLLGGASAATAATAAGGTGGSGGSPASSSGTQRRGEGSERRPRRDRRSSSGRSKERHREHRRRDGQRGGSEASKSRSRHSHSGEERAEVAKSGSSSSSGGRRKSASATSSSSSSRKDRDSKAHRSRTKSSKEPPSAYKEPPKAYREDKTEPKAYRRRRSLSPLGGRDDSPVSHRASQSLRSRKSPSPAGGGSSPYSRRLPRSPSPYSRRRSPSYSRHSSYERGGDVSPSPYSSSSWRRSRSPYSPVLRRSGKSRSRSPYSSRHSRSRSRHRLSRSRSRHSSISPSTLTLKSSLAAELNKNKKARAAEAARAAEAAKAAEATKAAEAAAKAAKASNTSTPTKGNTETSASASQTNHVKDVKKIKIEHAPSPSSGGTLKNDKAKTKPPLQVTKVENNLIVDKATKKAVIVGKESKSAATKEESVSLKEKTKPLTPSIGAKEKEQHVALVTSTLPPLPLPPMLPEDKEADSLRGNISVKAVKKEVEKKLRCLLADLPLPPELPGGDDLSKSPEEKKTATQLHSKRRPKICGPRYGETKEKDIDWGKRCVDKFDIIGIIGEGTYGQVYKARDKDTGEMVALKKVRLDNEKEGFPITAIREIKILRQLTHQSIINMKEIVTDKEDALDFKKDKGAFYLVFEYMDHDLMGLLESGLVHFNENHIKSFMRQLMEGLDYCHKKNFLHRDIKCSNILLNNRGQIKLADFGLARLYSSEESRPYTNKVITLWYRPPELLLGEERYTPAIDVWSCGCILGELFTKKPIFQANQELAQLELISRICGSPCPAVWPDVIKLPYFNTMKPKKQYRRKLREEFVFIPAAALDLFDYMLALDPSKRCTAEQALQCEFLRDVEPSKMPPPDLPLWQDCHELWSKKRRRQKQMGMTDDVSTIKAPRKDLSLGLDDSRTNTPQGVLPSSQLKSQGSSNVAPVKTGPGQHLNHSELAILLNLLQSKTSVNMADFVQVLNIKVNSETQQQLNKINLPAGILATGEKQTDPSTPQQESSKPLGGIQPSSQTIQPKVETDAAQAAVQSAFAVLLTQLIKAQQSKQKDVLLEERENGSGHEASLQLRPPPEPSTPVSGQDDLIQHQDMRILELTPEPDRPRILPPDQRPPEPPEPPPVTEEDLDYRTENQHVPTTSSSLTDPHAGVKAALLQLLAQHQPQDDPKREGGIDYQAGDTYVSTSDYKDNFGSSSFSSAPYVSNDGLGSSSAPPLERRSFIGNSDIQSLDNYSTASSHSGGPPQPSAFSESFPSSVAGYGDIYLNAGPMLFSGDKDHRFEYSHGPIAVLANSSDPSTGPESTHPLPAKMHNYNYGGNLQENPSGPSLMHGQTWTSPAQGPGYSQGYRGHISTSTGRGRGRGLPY
Sequence of CDK13 (O75909 whole entry partner, looked up): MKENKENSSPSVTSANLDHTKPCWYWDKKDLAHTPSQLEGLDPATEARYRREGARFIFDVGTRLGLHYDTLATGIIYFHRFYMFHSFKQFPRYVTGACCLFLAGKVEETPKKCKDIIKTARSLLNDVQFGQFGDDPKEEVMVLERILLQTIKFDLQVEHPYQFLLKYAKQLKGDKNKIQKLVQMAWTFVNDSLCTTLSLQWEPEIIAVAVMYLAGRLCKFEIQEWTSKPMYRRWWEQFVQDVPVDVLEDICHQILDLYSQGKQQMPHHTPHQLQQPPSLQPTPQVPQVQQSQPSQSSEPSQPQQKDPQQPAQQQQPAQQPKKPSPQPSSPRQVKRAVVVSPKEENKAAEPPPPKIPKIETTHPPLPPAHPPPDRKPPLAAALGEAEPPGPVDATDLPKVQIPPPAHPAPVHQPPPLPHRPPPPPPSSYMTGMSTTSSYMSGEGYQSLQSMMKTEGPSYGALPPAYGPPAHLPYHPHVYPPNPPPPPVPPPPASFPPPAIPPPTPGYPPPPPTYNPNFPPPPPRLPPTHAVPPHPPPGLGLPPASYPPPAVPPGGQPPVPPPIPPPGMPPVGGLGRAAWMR
Sequence of CDK12 (Q9NYV4 whole entry): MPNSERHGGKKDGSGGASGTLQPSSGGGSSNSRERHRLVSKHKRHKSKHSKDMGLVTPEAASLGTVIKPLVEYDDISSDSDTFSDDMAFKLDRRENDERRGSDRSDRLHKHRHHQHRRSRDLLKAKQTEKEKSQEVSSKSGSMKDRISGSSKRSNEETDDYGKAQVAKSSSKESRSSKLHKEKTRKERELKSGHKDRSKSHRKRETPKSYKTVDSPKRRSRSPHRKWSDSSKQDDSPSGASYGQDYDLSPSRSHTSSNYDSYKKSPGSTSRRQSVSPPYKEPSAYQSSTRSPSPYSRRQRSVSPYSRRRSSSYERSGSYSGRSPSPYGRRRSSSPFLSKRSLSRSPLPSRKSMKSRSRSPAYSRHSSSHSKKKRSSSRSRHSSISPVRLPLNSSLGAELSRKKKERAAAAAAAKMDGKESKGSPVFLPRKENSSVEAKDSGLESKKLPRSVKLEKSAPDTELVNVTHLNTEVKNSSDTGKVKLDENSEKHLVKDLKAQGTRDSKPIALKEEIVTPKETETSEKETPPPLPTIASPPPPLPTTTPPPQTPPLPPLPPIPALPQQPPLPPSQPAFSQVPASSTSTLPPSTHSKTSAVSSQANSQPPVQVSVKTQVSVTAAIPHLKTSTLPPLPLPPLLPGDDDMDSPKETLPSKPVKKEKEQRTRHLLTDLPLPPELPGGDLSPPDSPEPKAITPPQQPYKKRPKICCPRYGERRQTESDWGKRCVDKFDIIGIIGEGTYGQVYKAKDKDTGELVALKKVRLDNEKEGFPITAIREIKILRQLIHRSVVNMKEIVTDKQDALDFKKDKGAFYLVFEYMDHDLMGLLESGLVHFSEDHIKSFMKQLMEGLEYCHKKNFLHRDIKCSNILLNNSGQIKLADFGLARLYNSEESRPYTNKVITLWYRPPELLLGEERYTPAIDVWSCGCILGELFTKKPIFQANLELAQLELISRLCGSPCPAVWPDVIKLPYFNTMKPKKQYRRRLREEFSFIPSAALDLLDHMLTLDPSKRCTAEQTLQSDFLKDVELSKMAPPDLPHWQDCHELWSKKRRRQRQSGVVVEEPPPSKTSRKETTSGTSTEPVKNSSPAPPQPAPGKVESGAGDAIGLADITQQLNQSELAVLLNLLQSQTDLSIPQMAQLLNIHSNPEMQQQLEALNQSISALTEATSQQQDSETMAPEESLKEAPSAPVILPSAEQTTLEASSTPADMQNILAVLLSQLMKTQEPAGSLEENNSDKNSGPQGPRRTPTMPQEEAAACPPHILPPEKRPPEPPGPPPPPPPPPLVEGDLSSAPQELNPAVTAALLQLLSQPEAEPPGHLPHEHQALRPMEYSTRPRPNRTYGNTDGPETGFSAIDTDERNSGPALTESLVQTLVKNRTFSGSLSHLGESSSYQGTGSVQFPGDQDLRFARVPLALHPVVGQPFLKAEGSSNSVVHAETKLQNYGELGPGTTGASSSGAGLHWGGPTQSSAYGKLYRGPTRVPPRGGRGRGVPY
Sequence of CDK12 (O75909 whole entry partner): as the sequence (O75909 whole entry partner, looked up) above

Row | Structure (SMILES) | IC50 ([1]; Homo sapiens) | IC50 [2] | IC50 [3] | IC50 [1]
1 | C=CC(=O)Nc1cc(N(C(=O)C(=O)NCc2ccc(F)cc2)[C@H]2CC[C@H](Nc3ccc(C#N)cn3)CC2)ccc1N1CCN(C)[C@@H](C)C1 [YJZ8093, N1-(3-acrylamido-4-((S)-3,4-dimethylpiperazin-1-yl)phenyl)-N1-((1r,4S)-4-((5-cyanopyridin-2-yl)amino)cyclohexyl)-N2-(4-fluorobenzyl)oxalamide] | 15 to 50 nM |  |  | 
2 | C=CC(=O)Nc1cc(N(C(=O)C(=O)NCc2cccc(F)c2)[C@H]2CC[C@H](Nc3ccc(C#N)cn3)CC2)ccc1N1CCN(C)[C@@H](C)C1 [YJZ8087, N1-(3-acrylamido-4-((S)-3,4-dimethylpiperazin-1-yl)phenyl)-N1-((1r,4S)-4-((5-cyanopyridin-2-yl)amino)cyclohexyl)-N2-(3-fluorobenzyl)oxalamide] | 15 to 50 nM |  |  | 
3 | C=CC(=O)Nc1cc(N(C(=O)C(=O)NCc2cccc(F)c2F)[C@H]2CC[C@H](Nc3ccc(C#N)cn3)CC2)ccc1N1CCN(C)[C@@H](C)C1 [YJZ8107, N1-(3-acrylamido-4-((S)-3,4-dimethylpiperazin-1-yl)phenyl)-N1-((1r,4S)-4-((5-cyanopyridin-2-yl)amino)cyclohexyl)-N2-(2,3-difluorobenzyl)oxalamide] | 15 to 50 nM |  |  | 
4 | C=CC(=O)Nc1cc(OC)cc(N(C(=O)NCc2ccccc2)[C@H]2CC[C@H](Nc3ccc(C#N)cn3)CC2)c1 [YJZ8058, N-(3-(3-benzyl-1-((1r,4r)-4-((5-cyanopyridin-2-yl)amino)cyclohexyl)ureido)-5-methoxyphenyl)acrylamide] | 50 to 500 nM |  |  | 
5 | C=CC(=O)Nc1cc(N(C(=O)NCc2ccccc2)[C@H]2CC[C@H](Nc3ccc(C#N)cn3)CC2)ccc1N1CCN(C)[C@@H](C)C1 [YJZ6093] | < 15 nM | 15 to 50 nM | 15 to 50 nM | 
6 | C=CC(=O)Nc1cc(Br)cc(N(C(=O)NCc2ccccc2)[C@H]2CC[C@H](Nc3ccc(C#N)cn3)CC2)c1 [YJZ8053, N-(3-(3-benzyl-1-((1r,4r)-4-((5-cyanopyridin-2-yl)amino)cyclohexyl)ureido)-5-bromophenyl)acrylamide] | 50 to 500 nM |  |  | 
7 | C=CC(=O)Nc1cccc(N(C(=O)NCc2ccccc2)[C@H]2CC[C@H](Nc3ccc(C#N)cn3)CC2)c1 [YJZ4156, N-(3-(3-benzyl-1-((1r,4r)-4-((5-cyanopyridin-2-yl)amino)cyclohexyl)ureido)phenyl)acrylamide] | 50 to 500 nM | > 500 nM | 50 to 500 nM | 
8 | C=CC(=O)Nc1cc(N([C@H]2CC[C@H](Nc3ccc(C#N)cn3)CC2)S(C)(=O)=O)ccc1N1CCC(N(C)C)CC1 [YJZ6131, N-(5-(N-((1r,4r)-4-((5-cyanopyridin-2-yl)amino)cyclohexyl)methylsulfonamido)-2-(4-(dimethylamino)piperidin-1-yl)phenyl)acrylamide] | > 500 nM |  |  | 
9 | C=CC(=O)Nc1cc(N(C(=O)NCc2ccccc2)[C@H]2CC[C@H](Nc3ccc(C#N)cn3)CC2)cc(F)c1N1CCN(C)[C@@H](C)C1 [YJZ8070] |  | 50 to 500 nM | 15 to 50 nM | < 15 nM
10 | C=CC(=O)Nc1cc(N2CCN(C)[C@@H](C)C2)cc(N(C(=O)NCc2ccccc2)[C@H]2CC[C@H](Nc3ccc(C#N)cn3)CC2)c1 [YJZ8062] | 15 to 50 nM |  |  | 
11 | C=CC(=O)Nc1cc(N(C(=O)NCc2ccccc2)[C@H]2CC[C@H](Nc3ccc(C#N)cn3)CC2)ccc1N1CCN(C(C)=O)CC1 [YJZ5111, N-(2-(4-acetylpiperazin-1-yl)-5-(3-benzyl-1-((1r,4r)-4-((5-cyanopyridin-2-yl)amino)cyclohexyl)ureido)phenyl)acrylamide] | 15 to 50 nM | 15 to 50 nM | 15 to 50 nM | 
12 | C=CC(=O)Nc1cc(N(C(=O)NCc2ccccc2)[C@H]2CC[C@H](Nc3ncc(C#N)cn3)CC2)ccc1N1CCN(C)[C@@H](C)C1 [YJZ7007] | 15 to 50 nM |  |  | 
13 | C=CC(=O)Nc1cc(N(C(=O)NCc2ccccc2)[C@H]2CC[C@H](Nc3ccc(C#N)cn3)CC2)ccc1N1CCOCC1 [YJZ5127, N-(5-(3-benzyl-1-((1r,4r)-4-((5-cyanopyridin-2-yl)amino)cyclohexyl)ureido)-2-morpholinophenyl)acrylamide] | 15 to 50 nM | 50 to 500 nM | < 15 nM | 
14 | C=CC(=O)Nc1cc(N(C(=O)NCc2ccccc2)[C@H]2CC[C@H](Nc3ccc(C#N)cn3)CC2)ccc1N1CCN(C2COC2)CC1 [YJZ6028, N-(5-(3-benzyl-1-((1r,4r)-4-((5-cyanopyridin-2-yl)amino)cyclohexyl)ureido)-2-(4-(oxetan-3-yl)piperazin-1-yl)phenyl)acrylamide] | 15 to 50 nM | 50 to 500 nM | 50 to 500 nM | 
15 | C=CC(=O)Nc1cc(N(C(=O)C(=O)N[C@H](C)c2ccccc2)[C@H]2CC[C@H](Nc3ccc(C#N)cn3)CC2)ccc1N1CCN(C)[C@@H](C)C1 [YJZ8105, N1-(3-acrylamido-4-((S)-3,4-dimethylpiperazin-1-yl)phenyl)-N1-((1r,4R)-4-((5-cyanopyridin-2-yl)amino)cyclohexyl)-N2-((R)-1-phenylethyl)oxalamide] | 15 to 50 nM |  |  | 
16 | C=CC(=O)Nc1cc(N(C(=O)C(=O)NCc2cc(F)cc(F)c2)[C@H]2CC[C@H](Nc3ccc(C#N)cn3)CC2)ccc1N1CCN(C)[C@@H](C)C1 [YJZ8102, N1-(3-acrylamido-4-((S)-3,4-dimethylpiperazin-1-yl)phenyl)-N1-((1r,4S)-4-((5-cyanopyridin-2-yl)amino)cyclohexyl)-N2-(3,5-difluorobenzyl)oxalamide] | 15 to 50 nM |  |  | 
17 | C=CC(=O)Nc1cc(N(C(=O)C(=O)NC2CC2)[C@H]2CC[C@H](Nc3ccc(C#N)cn3)CC2)ccc1N1CCN(C)[C@@H](C)C1 [YJZ8095, N1-(3-acrylamido-4-((S)-3,4-dimethylpiperazin-1-yl)phenyl)-N1-((1r,4S)-4-((5-cyanopyridin-2-yl)amino)cyclohexyl)-N2-cyclopropyloxalamide] | 15 to 50 nM |  |  | 
18 | CN(C)C/C=C/C(=O)Nc1cc(N(C(=O)NCc2ccccc2)[C@H]2CC[C@H](Nc3ccc(C#N)cn3)CC2)ccc1-c1ccc(=O)n(C)c1 [YJZ5078] | 50 to 500 nM |  |  | 
19 | C=CC(=O)Nc1cc(N(C(=O)C(=O)NCc2ccc(F)c(F)c2)[C@H]2CC[C@H](Nc3ccc(C#N)cn3)CC2)ccc1N1CCN(C)[C@@H](C)C1 [YJZ8101, N1-(3-acrylamido-4-((S)-3,4-dimethylpiperazin-1-yl)phenyl)-N1-((1r,4S)-4-((5-cyanopyridin-2-yl)amino)cyclohexyl)-N2-(3,4-difluorobenzyl)oxalamide] | < 15 nM |  |  | 
20 | C=CC(=O)Nc1cc(N([C@H]2CC[C@H](Nc3ccc(C#N)cn3)CC2)S(=O)(=O)Cc2ccccc2)ccc1N1CCC(N(C)C)CC1 [YJZ6136, N-(5-((N-((1r,4r)-4-((5-cyanopyridin-2-yl)amino)cyclohexyl)-1-phenylmethyl)sulfonamido)-2-(4-(dimethylamino)piperidin-1-yl)phenyl)acrylamide] | 50 to 500 nM |  |  | 
21 | C=CC(=O)Nc1cc(N(C(=O)C(=O)NCC2CC2)[C@H]2CC[C@H](Nc3ccc(C#N)cn3)CC2)ccc1N1CCN(C)[C@@H](C)C1 [YJZ8103, N1-(3-acrylamido-4-((S)-3,4-dimethylpiperazin-1-yl)phenyl)-N1-((1r,4S)-4-((5-cyanopyridin-2-yl)amino)cyclohexyl)-N2-(cyclopropylmethyl)oxalamide] | 15 to 50 nM |  |  | 
22 | C=CC(=O)Nc1cc(N(C(=O)NCc2ccccc2)[C@H]2CC[C@H](Nc3ccc(Cl)cn3)CC2)ccc1N1CCN(C)[C@@H](C)C1 [YJZ1070, N-(5-(3-benzyl-1-((1r,4S)-4-((5-chloropyridin-2-yl)amino)cyclohexyl)ureido)-2-((S)-3,4-dimethylpiperazin-1-yl)phenyl)acrylamide] |  | 15 to 50 nM | 15 to 50 nM | 
23 | C=CC(=O)Nc1cc(N(C(=O)C(=O)NCC(F)(F)F)[C@H]2CC[C@H](Nc3ccc(C#N)cn3)CC2)ccc1N1CCN(C)[C@@H](C)C1 [YJZ8104, N1-(3-acrylamido-4-((S)-3,4-dimethylpiperazin-1-yl)phenyl)-N1-((1r,4S)-4-((5-cyanopyridin-2-yl)amino)cyclohexyl)-N2-(2,2,2-trifluoroethyl)oxalamide] | 15 to 50 nM |  |  | 
24 | C=CC(=O)Nc1cc(N(C(C)=O)[C@H]2CC[C@H](Nc3ccc(C#N)cn3)CC2)ccc1N1CCC(N(C)C)CC1 [YJZ6115, N-(5-(N-((1r,4r)-4-((5-cyanopyridin-2-yl)amino)cyclohexyl)acetamido)-2-(4-(dimethylamino)piperidin-1-yl)phenyl)acrylamide] | > 500 nM |  |  | 
